Results taken from ChEMBL document CHEMBL5226278, “Pharmacological approaches for targeting cystic fibrosis nonsense mutations” (2020).

Assay: Restoration of CFTR chloride channel activity in human HBE cells expressing wild type CFTR assessed as increase in channel function
Format: functional

C[C@H](N)[C@H]1O[C@@H](O[C@@H]2[C@@H](O)[C@H](N)C[C@H](N)[C@H]2O[C@H]2O[C@H]([C@@H](C)O)[C@@H](O)[C@H](O)[C@H]2N)[C@H](O)[C@@H]1O
Activity: 7%
